Source: paper PMC11714206, “Massively Parallel Screening of Toll/Interleukin‐1 Receptor (TIR)‐Derived Peptides Reveals Multiple Toll‐Like Receptors (TLRs)‐Targeting Immunomodulatory Peptides” (Advanced Science, 2024)
Values belong to the substance of their own block, whether it stands above or below them.

Molecular target: T1, MAL^TIR (Homo sapiens, UniProt P58753)
T1 construct: MAL (residues 79–221); 6xHis; made in house; host or cells: E. coli BL21 (DE3)
Assay: T‐Surf phage library (P8 and P3) selection against MAL^TIR, four rounds, NGS read counts
Format: binding
Details: for P3_MAL Rank (after) / P3_MAL Rank (before): P3 library; for Population: P8_MAL pool: P8 T-Surf phage library, 4th round of selection against MAL TIR, share of NGS reads; for P8_MAL Rank (after) / P8_MAL Rank (before): P8 library
Method in brief: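 Coat TIR domain 5 µg mL^−1 overnight; block 0.2% BSA/PBS 1 h, 4 °C; add phage library 1 h, RT; wash ×4 PBS/0.5% Tween‐20; elute 100 mM HCl, neutralize Tris; amplify in TG1, PEG‐precipitate. Repeat to round 4; barcode PCR, NovaSeq, count reads.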

[1] = selection against MAL, rank after grouping
[2] = selection against MAL, rank before grouping
[3] = P3_MAL: rank by count after grouping
[4] = P3_MAL: rank by count before grouping
[5] = selection against MAL TIR, rank by count after grouping
[6] = selection against MAL TIR, rank by count before grouping
[7] = P8_MAL: rank by count after grouping
[8] = P8_MAL: rank by count before grouping
[9] = selection against MAL, rank by count after grouping
[10] = selection against MAL, rank by count before grouping
[11] = 4R selection against MAL, rank after grouping
[12] = 4R selection against MAL, rank before grouping

T1 sequence (P58753 79-221): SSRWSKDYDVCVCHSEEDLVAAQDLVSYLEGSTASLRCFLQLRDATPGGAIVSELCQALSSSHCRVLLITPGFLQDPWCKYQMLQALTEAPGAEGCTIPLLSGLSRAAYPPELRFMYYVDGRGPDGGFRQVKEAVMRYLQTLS

P3_MAL Rank (after) [1]: 570
P3_MAL Rank (before) [2]: 1688
Substance: VLQNFISHPYDFLARK

Rank (after) [3]: 94
Rank (before) [4]: 94
Substance: VRHNFIGYLRDALQHR

P3_MAL Rank (after) [5]: 197
P3_MAL Rank (before) [6]: 1698
Substance: VRHSFAGYRYDALNRL

Rank (after) [3]: 431
Rank (before) [4]: 1700
Substance: VRHTFAGYLCVALNRL

Rank (after) [3]: 404
Rank (before) [4]: 1703
Substance: VRHTFAGYLYDALHRNRI

Rank (after) [3]: 140
Rank (before) [4]: 406
Substance: VRQNFISHLYDALHRNRI

P3_MAL Rank (after) [1]: 512
P3_MAL Rank (before) [2]: 1691
Substance: VRVVDDGSVSPLEM

Rank (after) [7]: 469
Rank (before) [8]: 1562
Substance: VTKLKKGKSIAPKLLR

Rank (after) [7]: 385
Rank (before) [8]: 1403
Substance: WCYERRVSLILRETKV

Rank (after) [7]: 463
Rank (before) [8]: 1422
Substance: WDDPWFWDKLHYAMPR

Population: 0.00278%
Substance: WF*ERLVSLILRDTKV

P8_MAL Rank (after) [1]: 537
P8_MAL Rank (before) [2]: 1112
Substance: WFFDGLVSLFLGDTKL

Rank (after) [7]: 411
Rank (before) [8]: 1115
Substance: WFFEPLVILIPRDTKV

P8_MAL Rank (after) [9]: 712
P8_MAL Rank (before) [10]: 1114
Substance: WFFERLVKLILRDTKV

P8_MAL Rank (after) [1]: 559
P8_MAL Rank (before) [2]: 1113
Substance: WFFERLVRPILRGTQG

Population: 0.0034%
Substance: WFFERLVSLILRDTKV

P3_MAL Rank (after) [9]: 709
P3_MAL Rank (before) [10]: 1219
Substance: WFFPETGKIFEARKTI

P3_MAL Rank (after) [11]: 669
P3_MAL Rank (before) [12]: 1224
Substance: WFFQEKVKIFEARKTI

Rank (after) [7]: 396
Rank (before) [8]: 1372
Substance: WFIIKFRTVLDRVNDV

P8_MAL Rank (after) [9]: 715
P8_MAL Rank (before) [10]: 1353
Substance: WFLEQLEKILEAHGTT

P8_MAL Rank (after) [1]: 523
P8_MAL Rank (before) [2]: 1314
Substance: WFLFTFLINLTHPTNF

Rank (after) [7]: 459
Rank (before) [8]: 1324
Substance: WFLFTVRSAIYAMDQVADT

P8_MAL Rank (after) [9]: 692
P8_MAL Rank (before) [10]: 1346
Substance: WFLFTVRSAIYSISRA

P8_MAL Rank (after) [5]: 220
P8_MAL Rank (before) [6]: 1338
Substance: WFLFTVRSATYTMSPA

P8_MAL Rank (after) [1]: 511
P8_MAL Rank (before) [2]: 1354
Substance: WFLLKFRTVLAHVNDV

Rank (after) [7]: 412
Rank (before) [8]: 1352
Substance: WFLSAFLIPMAQLADT

P8_MAL Rank (after) [11]: 662
P8_MAL Rank (before) [12]: 1359
Substance: WFLTAFRVAMEQVADT

P8_MAL Rank (after) [1]: 482
P8_MAL Rank (before) [2]: 1378
Substance: WFMMKFRTVLDRVPEV

P8_MAL Rank (after) [5]: 216
P8_MAL Rank (before) [6]: 760
Substance: WFMMKFRTVLGKPTM

Rank (after) [7]: 398
Rank (before) [8]: 1377
Substance: WFMMKFRTVLYHVNYV

Rank (after) [7]: 425
Rank (before) [8]: 1374
Substance: WFMMTFRTVLHHVHDV

Population: 0.00432%
Substance: WFMNVW*A*FCVIPKX

P8_MAL Rank (after) [1]: 573
P8_MAL Rank (before) [2]: 1391
Substance: WFNIRLVTVLDHVNDV

Rank (after) [7]: 113
Rank (before) [8]: 556
Substance: WFWDKLKYALPHRYEP

Rank (after) [3]: 149
Rank (before) [4]: 501
Substance: WFWEKLRYALTAAANLSGW

Rank (after) [3]: 451
Rank (before) [4]: 1266
Substance: WFWNNLKYALPLRYDP

P3_MAL Rank (after) [11]: 651
P3_MAL Rank (before) [12]: 1227
Substance: WFWVKLLYALTYRPGI

Rank (after) [7]: 419
Rank (before) [8]: 1135
Substance: WFYARLVRLILRDPKV

Rank (after) [7]: 150
Rank (before) [8]: 1132
Substance: WFYARLVSLLLRDTKV

P8_MAL Rank (after) [9]: 711
P8_MAL Rank (before) [10]: 1142
Substance: WFYDRIVSLNGRDKQV

P8_MAL Rank (after) [11]: 647
P8_MAL Rank (before) [12]: 1141
Substance: WFYDRLVRLILRDTKV

Rank (after) [7]: 476
Rank (before) [8]: 1140
Substance: WFYDRLVSLFLRDPKV

P8_MAL Rank (after) [5]: 217
P8_MAL Rank (before) [6]: 1145
Substance: WFYECLVSLILRVTKV

P8_MAL Rank (after) [5]: 251
P8_MAL Rank (before) [6]: 1143
Substance: WFYEFLVFLILRDTKV

Population: 0.00371%
Substance: WFYEHLVSLILRDTKV

Rank (after) [7]: 394
Rank (before) [8]: 1150
Substance: WFYELLVSLIVRDTKV

P8_MAL Rank (after) [5]: 221
P8_MAL Rank (before) [6]: 1149
Substance: WFYELLVSLLLRDTKV

P8_MAL Rank (after) [9]: 706
P8_MAL Rank (before) [10]: 1296
Substance: WFYEPLLSMLLRATKV

P8_MAL Rank (after) [5]: 236
P8_MAL Rank (before) [6]: 1293
Substance: WFYEPLVSLILRDTKL

P8_MAL Rank (after) [11]: 586
P8_MAL Rank (before) [12]: 1294
Substance: WFYEPLVSQITRDTKV

P8_MAL Rank (after) [1]: 561
P8_MAL Rank (before) [2]: 1292
Substance: WFYEPLVSVILPDTKV

P8_MAL Rank (after) [1]: 550
P8_MAL Rank (before) [2]: 1151
Substance: WFYERFVSQIPRDTNL

Population: 0.0034%
Substance: WFYERLASLILRDTKV

Population: 0.00278%
Substance: WFYERLESLILRDTKV

Rank (after) [7]: 148
Rank (before) [8]: 1160
Substance: WFYERLFSLILRATKV
